# What was measured:
# [1] = system: human fibroblast like synoviocytes (FLS); assay: MTT proliferation assay, human fibroblast like synoviocytes; format: cell-based; conditions: CF101 10 nM added for the last 24 hours of 72 hours, FLS from OA patients, FIG. 1A
# Method: The effect of IB-MECA (herein at times CF101) alone or in combination with MTX, on the proliferation of the human or rat fibroblast like synoviocytes (FLS) was tested. […] Human synovial fluid samples were collected from osteoarthritis (OA) patients undergoing paracenthesis. The fluid was centrifuged and the supernatant removed. The cells were resuspended in DMEM containing type I collagenase (4 mg/ml), for 2 hours, and shacked vigorously at 37°. The released cells in the supernatant were harvested by centrifugation and were cultured in DMEM containing 10% FBS, 2 mM glutamine, 100 U/ml penicillin, 100 μg/ml streptomycin, 1% non essential amino acids, 1% sodium pyruvate and […] HEPES buffer in a 37° C., 5% CO2 incubator. After overnight culture, non-adherent cells were removed. The adherent cells (FLS) were subcultured at a 1:2 ratio, and the cells from passages 4 through 10 were used in the experiments. The effect of CF101 alone or in combination with MTX, on the proliferation of the FLS was tested utilizing an MTT assay. The cells (5×10^4/ml cells) were incubated in 96-well microtiter plates for 72 hours in the growth medium. At the last 24 hours CF101 (10 nM) were added to the cultures.
# rat FLS = assay: MTT proliferation assay, rat fibroblast like synoviocytes; format: cell-based; conditions: CF101 10 nM added for the last 24 hours of 72 hours, FLS from adjuvant induced arthritis rats, FIG. 1B
# Method: The effect of IB-MECA (herein at times CF101) alone or in combination with MTX, on the proliferation of the human or rat fibroblast like synoviocytes (FLS) was tested. […] Synovia tissue from adjuvant induced arthritis rats was collected. The tissue was minced and subjected for digestion in 4 mg/ml type I collagenase and 0.25 w/v trypsin in DMEM. The mixture was shacked vigorously for 4 hours at 37°. The released cells were separated from the supernatant by centrifugation and cultured in DMEM containing 15% FCS, 2 mM glutamine, 100 U/ml penicillin, 100 μg/ml streptomycin in a 37° C., 5% CO2 incubator. After overnight incubation the nonadherent cells were removed. The adherent cells (FLS) were sub-cultured at a 1:2 ratio, and the cells from passages 4 through 10 were used in the experiments. The effect of CF101 alone or in combination with MTX, on the proliferation of the FLS was tested utilizing an MTT assay. The cells (5×10^4/ml cells) were incubated in 96-well microtiter plates for 72 hours in the growth medium. At the last 24 hours CF101 (10 nM) were added to the cultures.
# [2] = system: mono-idoacetate (MIA) experimental osteoarthritis (OA); assay: MIA experimental osteoarthritis model, knee diameter; format: in vivo, rat; conditions: male Wistar rats; CF101 100 μg/kg PO twice daily from day 7 post-injection; vs control group, P=9.48317E-06; FIG. 2
# Method: (§1) In the following study the effect of IB-MECA (herein, at times, CF101) on the development of experimental osteoarthritis (OA) was determined. In this study the mono-idoacetate (MIA) experimental model was utilized. The MIA is a rat experimental model that rapidly reproduces the clinical and pathological characteristic of OA. […] Infra-articular injection of MIA induces chondrocyte death in the articular cartilage of rodent. Specifically, male Wistar rats (˜200 gr) (Harlan laboratories) were anesthetized with Isoflurane and the right leg was flexed at a 90° angle of the knee. The MIA was dissolved in physiological saline and 2 mg, at a volume of 50 μL were injected intra-articular of the right foot of each animal, using a 27-gauge, 0.5-inch needle. Treatment with CF101, 100 μg/kg, Per Oz (PO), twice daily was initiated at day 7 post-injection. Knee diameter was measured using calibrated digital caliper adapted by reinforcing the tips for knee diameter measure. The results presented in FIG. 2 show the delta between the diameter of the MIA injected knee (Right knee) and the diameter of the MIA un-injected knee (Left knee) within the same animal. The group of the control is compared to the CF101 treated group (5 animals in each group).
# [3] = system: mono-idoacetate (MIA) experimental osteoarthritis (OA); assay: MIA experimental osteoarthritis model, roentgenographic examination of knees; format: in vivo, rat; conditions: MIA rats; CF101 100 μg/kg PO twice daily; FIGS. 3A-3D
# Method: as §1, with “post-injection.” for “post-injection. Knee diameter was measured using calibrated digital caliper adapted by reinforcing the tips for knee diameter measure. The results presented in FIG. 2 show the delta between the diameter of the MIA injected knee (Right knee) and the diameter of the MIA un-injected knee (Left knee) within the same animal. The group of the control is compared to the CF101 treated group (5 animals in each group).”
# A3AR = biological target: T1, A3AR (Rattus norvegicus, UniProt P28647); assay: Western blot of knee joint protein extracts, A3AR; format: in vivo; conditions: OA rats, CF101 treated vs control, FIG. 4A
# T1 construct: knee joints protein extracts from control and CF101 treated animal were subjected to Western blot analysis; from tissue; host or cells: rat knee joint (OA rats)
# T1 sequence (P28647 1-320): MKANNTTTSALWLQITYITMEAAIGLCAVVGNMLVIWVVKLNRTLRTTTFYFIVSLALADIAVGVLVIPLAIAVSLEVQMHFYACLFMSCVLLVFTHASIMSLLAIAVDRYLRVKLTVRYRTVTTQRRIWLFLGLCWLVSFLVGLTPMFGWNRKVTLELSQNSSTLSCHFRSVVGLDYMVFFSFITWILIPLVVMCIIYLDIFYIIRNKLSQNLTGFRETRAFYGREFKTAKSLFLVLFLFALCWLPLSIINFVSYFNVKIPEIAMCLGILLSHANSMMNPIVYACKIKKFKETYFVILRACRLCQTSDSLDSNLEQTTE
# Excerpt: (§2) To explore the fate of the A3AR and downstream key signaling proteins participating in the NF-kB and Wnt signaling pathways, knee joints protein extracts from control and CF101 treated animal were subjected to Western blot analysis.
# PI3K = assay: Western blot of knee joint protein extracts, PI3K; format: in vivo, rat; conditions: OA rats, CF101 treated vs control, FIG. 4B
# Excerpt: as §2
# IKK = assay: Western blot of knee joint protein extracts, IKK; format: in vivo, rat; conditions: OA rats, CF101 treated vs control, FIG. 4C
# Excerpt: as §2
# GSK-3β = assay: Western blot of knee joint protein extracts, GSK-3β; format: in vivo, rat; conditions: OA rats, CF101 treated vs control, FIG. 4E
# Excerpt: as §2
# [4] = oral, healthy young men; cited from earlier work
smiles,measurement,setting,value
"CNC(=O)[C@H]1O[C@@H](n2cnc3c(NCc4cccc(I)c4)ncnc32)[C@H](O)[C@@H]1O [CF101, 1-deoxy-1-{6-[({3-iodophenyl}methyl)amino]-9H-purine-9-yl}-N-methyl-β-D-ribofuranuronamide]",effect on the proliferation of human FLS,[1],marked inhibitory effect
same,effect on the proliferation of rat FLS,rat FLS,marked inhibitory effect
same,development of tissue swelling (delta between diameter of MIA injected and un-injected knee),[2],significantly inhibited
same,roentgenographic examination of knees,[3],normal tibial epiphysial line without sclerosis
same,A3AR expression level in knee joints,A3AR,down-regulated
same,PI3K expression level in knee joints,PI3K,down-regulation
same,IKK expression level in knee joints,IKK,down-regulation
same,GSK-3β expression level in knee joints,GSK-3β,up-regulated
same,half life in human plasma,[4],8 to 10 h

# — patent publication US10265337B2, “Use of A3 adenosine receptor agonist in osteoarthritis treatment” (CAN-FITE BIOPHARMA LTD., priority 2005, dated 2019)
